The record followed here is ChEMBL document CHEMBL5352478, “Novel pyridine-containing histone deacetylase inhibitors strongly arrest proliferation, induce apoptosis and modulate miRNAs in cancer cells” (Eur J Med Chem, 2023).

Among the targets are Histone deacetylase 1 (Homo sapiens, UniProt Q13547); Histone deacetylase 2 (Homo sapiens, UniProt Q92769); Histone deacetylase 5 (Homo sapiens, UniProt Q9UQL6); Histone deacetylase 3 (Homo sapiens, UniProt O15379); Histone deacetylase 4 (Homo sapiens, UniProt P56524).
For experiment [1], the target named is T1, Histone deacetylase 8 (Homo sapiens, UniProt Q9BY41).
T1 sequence (Q9BY41 whole entry): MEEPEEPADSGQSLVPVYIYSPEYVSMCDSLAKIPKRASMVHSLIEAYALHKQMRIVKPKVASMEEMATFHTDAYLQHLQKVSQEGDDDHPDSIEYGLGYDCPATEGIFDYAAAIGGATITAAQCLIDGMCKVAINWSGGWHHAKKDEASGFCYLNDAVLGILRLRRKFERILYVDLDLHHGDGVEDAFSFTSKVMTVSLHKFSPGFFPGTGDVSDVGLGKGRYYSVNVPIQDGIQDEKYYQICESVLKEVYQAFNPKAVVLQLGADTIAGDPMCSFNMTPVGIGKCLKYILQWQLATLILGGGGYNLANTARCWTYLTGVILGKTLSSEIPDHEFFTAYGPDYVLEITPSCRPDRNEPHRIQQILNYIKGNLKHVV

Experiment [2] concerns U-937. Kind of experiment: Induction of cell cycle arrest in human U-937 cells assessed as accumulation of cells in pre-G1 phase at 1 uM for 48 hrs by PI staining based flow cytometric analysis. The format is functional. On the technique in general: In flow cytometry, cells or beads pass a laser one at a time.
Another experiment concerns HCT-116. Kind of experiment: cells. Format: functional, cell-based. The conditions noted are these: Homo sapiens, HCT-116, 72 h.
The test system of experiment [3] is U-937. The experiment can be described thus: Induction of cell cycle arrest in human U-937 cells assessed as accumulation of cells in G1 phase at 1 to 5 uM for 48 hrs by PI staining based flow cytometric analysis. The format is functional. To be noted: dose 1-5 µM.
Another experiment concerns A549. The experiment can be described thus: cells. Format: functional, cell-based. To be noted: Homo sapiens, A549, 72 h.
For experiment [4], the system named is U-937. Kind of experiment: Antiproliferative activity against human U-937 cells incubated for 48 hrs. The conditions noted are these: U-937, 48 h. The format is functional, cell-based.
Experiment [5] deals with K562. Kind of experiment: cells. Format: functional, cell-based. The conditions noted are these: Homo sapiens, K562, 72 h.
Experiment [6] concerns the target T2, Polyamine deacetylase HDAC10 (Homo sapiens, UniProt Q969S8).
T2 sequence (Q969S8 whole entry): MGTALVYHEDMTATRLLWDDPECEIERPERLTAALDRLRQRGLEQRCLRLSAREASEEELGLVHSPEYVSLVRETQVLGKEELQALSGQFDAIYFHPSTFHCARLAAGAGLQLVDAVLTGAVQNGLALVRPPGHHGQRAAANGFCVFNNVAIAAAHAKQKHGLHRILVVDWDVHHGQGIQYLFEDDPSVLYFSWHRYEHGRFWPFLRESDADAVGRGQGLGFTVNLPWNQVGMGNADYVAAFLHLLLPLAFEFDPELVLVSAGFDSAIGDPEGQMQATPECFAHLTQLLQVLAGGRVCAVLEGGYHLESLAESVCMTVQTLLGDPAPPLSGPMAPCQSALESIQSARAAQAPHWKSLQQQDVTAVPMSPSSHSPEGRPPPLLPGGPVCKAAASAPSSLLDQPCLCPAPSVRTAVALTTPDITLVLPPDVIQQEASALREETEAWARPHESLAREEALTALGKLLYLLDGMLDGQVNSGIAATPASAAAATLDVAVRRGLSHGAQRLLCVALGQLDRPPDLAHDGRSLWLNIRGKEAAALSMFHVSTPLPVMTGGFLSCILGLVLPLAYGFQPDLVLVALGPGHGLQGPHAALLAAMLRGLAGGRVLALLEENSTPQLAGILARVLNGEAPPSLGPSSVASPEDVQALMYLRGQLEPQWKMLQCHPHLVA

The subject of the next experiment is MV4-11. The experiment can be described thus: Antiproliferative activity against human MV4-11 cells incubated for 48 hrs. The format is functional, cell-based. The conditions noted are these: MV4-11, 48 h.
Experiment [7] addresses T3, Histone deacetylase 11 (Homo sapiens, UniProt Q96DB2).
T3 sequence (Q96DB2 whole entry): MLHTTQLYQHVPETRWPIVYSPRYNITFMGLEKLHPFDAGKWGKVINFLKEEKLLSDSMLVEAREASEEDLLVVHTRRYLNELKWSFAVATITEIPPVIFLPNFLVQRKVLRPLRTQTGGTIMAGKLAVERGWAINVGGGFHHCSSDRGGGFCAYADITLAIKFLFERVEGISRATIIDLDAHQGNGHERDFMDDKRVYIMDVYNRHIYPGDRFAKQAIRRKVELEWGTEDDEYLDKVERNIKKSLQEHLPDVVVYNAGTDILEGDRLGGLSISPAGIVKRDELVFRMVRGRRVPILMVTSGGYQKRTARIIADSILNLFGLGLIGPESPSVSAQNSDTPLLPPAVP

The test system of a further experiment is OCI-AML2. Kind of experiment: Antiproliferative activity against human OCI-AML2 cells incubated for 48 hrs. To be noted: OCI-AML2, 48 h. Format: functional, cell-based.
For the next experiment, the system named is HL-60. Kind of experiment: Antiproliferative activity against human HL-60 cells incubated for 48 hrs. Format: functional, cell-based. The conditions noted are these: HL-60, 48 h.
Experiment [8] concerns K562. The experiment can be described thus: Potency index, ratio of SAHA IC50 to test compound IC50 for antiproliferative activity against human K562 cell. The format is functional.
The subject of a further experiment is OCI-AML-3. The experiment can be described thus: Antiproliferative activity against human OCI-AML-3 cells incubated for 48 hrs. Format: functional, cell-based. To be noted: OCI-AML-3, 48 h.
A further experiment deals with KARPAS-299. Kind of experiment: Antiproliferative activity against human KARPAS-299 cells incubated for 48 hrs. The format is functional, cell-based. The conditions noted are these: KARPAS-299, 48 h.
Experiment [9] has as its target T4, Histone deacetylase 9 (Homo sapiens, UniProt Q9UKV0).
Experiment [10] deals with U-937. Kind of experiment: Induction of cell cycle arrest in human U-937 cells assessed as accumulation of cells in pre-G1 phase at 5 uM for 24 hrs by PI staining based flow cytometric analysis. Format: functional.
For experiment [11], the target named is T5, Histone deacetylase 7 (Homo sapiens, UniProt Q8WUI4).
T5 sequence (Q8WUI4 whole entry): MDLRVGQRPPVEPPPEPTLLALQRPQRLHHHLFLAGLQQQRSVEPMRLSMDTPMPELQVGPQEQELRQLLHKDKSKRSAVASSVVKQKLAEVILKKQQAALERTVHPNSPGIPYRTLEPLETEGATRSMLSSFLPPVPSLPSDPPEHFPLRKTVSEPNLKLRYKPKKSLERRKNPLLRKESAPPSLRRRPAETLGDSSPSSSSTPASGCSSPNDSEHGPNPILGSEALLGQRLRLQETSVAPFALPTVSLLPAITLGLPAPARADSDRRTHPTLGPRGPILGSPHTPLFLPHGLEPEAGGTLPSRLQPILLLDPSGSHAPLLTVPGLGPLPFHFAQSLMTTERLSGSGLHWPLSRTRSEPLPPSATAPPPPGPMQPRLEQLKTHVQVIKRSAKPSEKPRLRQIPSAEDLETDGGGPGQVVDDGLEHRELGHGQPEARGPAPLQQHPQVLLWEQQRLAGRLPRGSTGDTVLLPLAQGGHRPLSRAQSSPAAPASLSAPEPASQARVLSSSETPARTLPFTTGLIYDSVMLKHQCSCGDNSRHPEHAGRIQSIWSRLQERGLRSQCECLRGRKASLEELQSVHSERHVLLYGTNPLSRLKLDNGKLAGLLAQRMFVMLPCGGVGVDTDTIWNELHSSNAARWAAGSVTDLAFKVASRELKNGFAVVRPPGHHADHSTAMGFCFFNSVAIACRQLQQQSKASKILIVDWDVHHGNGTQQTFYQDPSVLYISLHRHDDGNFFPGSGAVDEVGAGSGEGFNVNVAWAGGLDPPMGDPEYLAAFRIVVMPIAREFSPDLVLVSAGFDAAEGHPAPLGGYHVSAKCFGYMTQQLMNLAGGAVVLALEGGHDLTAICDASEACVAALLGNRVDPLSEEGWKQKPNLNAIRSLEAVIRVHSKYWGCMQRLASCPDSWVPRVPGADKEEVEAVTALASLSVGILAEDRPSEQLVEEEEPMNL

In the next experiment the test system is NB-4. Kind of experiment: Antiproliferative activity against human NB4 cells incubated for 48 hrs. To be noted: NB-4, 48 h. The format is functional, cell-based.
A further experiment has as its system Kasumi 1. Kind of experiment: Antiproliferative activity against human Kasumi 1 cells incubated for 48 hrs. The format is functional, cell-based. To be noted: Kasumi 1, 48 h.
The nature of experiment [12]: Antiproliferative activity against human IMS-M2 cells incubated for 48 hrs. To be noted: IMS-M2, 48 h. Format: functional, cell-based.
The target of experiment [13] is T4, Histone deacetylase 9. The source holds these as a separate data set.
The target of experiment [14] is T1, Histone deacetylase 8. This is another data set of the same source.
Experiment [15] has as its target T5, Histone deacetylase 7. The source holds these as a separate data set.
The target in experiment [16] is T3, Histone deacetylase 11. The source holds these as a separate data set.
Experiment [17] relates to U-937. The experiment can be described thus: Induction of cell cycle arrest in human U-937 cells assessed as cell death at 5 uM for 48 hrs by PI staining based flow cytometric analysis. The format is functional.
Experiment [18] deals with U-937. Kind of experiment: Induction of cell cycle arrest in human U-937 cells assessed as accumulation of cells in pre-G1 phase at 5 uM for 48 hrs by PI staining based flow cytometric analysis. Format: functional. To be noted: 48 h, 5 µM.

Several values for one entry are separate records, joined by “and”; a condition that tells them apart may be missing. Equal entries are not always repeated.

Histone deacetylase 3, sequence (O15379 whole entry): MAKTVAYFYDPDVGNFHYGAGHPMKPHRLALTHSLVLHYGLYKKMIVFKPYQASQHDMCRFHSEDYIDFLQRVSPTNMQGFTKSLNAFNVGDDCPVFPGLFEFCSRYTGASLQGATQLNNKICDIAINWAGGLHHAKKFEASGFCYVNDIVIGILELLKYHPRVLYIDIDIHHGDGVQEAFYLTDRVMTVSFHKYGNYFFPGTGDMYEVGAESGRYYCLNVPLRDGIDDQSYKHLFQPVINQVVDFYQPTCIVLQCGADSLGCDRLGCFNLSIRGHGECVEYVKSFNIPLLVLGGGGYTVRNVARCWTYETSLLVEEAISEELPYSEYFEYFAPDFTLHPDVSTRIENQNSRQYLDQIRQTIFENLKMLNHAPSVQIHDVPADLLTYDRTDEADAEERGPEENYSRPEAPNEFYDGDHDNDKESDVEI
Histone deacetylase 5, sequence (Q9UQL6 whole entry): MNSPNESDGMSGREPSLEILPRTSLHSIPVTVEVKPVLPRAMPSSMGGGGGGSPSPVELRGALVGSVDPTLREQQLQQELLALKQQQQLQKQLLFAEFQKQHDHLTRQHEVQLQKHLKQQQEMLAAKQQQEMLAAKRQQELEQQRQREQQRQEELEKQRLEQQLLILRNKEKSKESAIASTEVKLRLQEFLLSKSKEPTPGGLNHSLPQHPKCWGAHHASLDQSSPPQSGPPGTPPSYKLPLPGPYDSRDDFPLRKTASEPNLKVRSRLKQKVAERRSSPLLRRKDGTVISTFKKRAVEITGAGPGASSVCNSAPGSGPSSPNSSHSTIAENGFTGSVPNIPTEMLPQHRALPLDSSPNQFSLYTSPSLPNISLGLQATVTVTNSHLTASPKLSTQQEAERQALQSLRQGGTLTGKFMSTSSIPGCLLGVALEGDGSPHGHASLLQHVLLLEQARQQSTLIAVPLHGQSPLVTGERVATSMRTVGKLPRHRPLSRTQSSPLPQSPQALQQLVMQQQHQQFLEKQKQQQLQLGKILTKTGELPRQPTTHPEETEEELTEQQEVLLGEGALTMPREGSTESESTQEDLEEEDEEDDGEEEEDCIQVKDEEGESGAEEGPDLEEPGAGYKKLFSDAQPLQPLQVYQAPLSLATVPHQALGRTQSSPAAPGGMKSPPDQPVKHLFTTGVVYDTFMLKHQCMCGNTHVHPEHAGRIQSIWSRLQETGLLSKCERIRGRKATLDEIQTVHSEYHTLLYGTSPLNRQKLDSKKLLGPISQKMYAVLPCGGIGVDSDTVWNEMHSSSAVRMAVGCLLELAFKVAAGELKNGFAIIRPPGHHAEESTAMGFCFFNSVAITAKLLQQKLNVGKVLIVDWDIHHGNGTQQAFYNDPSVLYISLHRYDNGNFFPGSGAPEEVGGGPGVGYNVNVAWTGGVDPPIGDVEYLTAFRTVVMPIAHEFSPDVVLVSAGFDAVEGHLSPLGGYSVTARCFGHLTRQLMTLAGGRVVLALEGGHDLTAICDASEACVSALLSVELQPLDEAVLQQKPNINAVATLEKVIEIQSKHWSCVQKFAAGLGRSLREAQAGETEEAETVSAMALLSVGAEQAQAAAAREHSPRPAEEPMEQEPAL
Histone deacetylase 2, sequence (Q92769 whole entry): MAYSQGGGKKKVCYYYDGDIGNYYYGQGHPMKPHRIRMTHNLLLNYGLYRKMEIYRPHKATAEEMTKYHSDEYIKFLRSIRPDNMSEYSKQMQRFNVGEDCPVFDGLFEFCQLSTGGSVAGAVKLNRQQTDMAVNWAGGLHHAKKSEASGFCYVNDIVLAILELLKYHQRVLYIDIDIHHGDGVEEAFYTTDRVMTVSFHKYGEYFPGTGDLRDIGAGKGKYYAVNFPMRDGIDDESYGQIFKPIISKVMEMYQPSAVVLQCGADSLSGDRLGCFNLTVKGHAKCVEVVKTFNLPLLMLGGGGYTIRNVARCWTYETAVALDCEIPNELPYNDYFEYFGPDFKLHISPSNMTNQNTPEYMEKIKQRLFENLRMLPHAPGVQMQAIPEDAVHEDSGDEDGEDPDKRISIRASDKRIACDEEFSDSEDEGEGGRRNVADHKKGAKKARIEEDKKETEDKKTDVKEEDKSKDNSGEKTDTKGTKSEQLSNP
T4 sequence (Q9UKV0 whole entry): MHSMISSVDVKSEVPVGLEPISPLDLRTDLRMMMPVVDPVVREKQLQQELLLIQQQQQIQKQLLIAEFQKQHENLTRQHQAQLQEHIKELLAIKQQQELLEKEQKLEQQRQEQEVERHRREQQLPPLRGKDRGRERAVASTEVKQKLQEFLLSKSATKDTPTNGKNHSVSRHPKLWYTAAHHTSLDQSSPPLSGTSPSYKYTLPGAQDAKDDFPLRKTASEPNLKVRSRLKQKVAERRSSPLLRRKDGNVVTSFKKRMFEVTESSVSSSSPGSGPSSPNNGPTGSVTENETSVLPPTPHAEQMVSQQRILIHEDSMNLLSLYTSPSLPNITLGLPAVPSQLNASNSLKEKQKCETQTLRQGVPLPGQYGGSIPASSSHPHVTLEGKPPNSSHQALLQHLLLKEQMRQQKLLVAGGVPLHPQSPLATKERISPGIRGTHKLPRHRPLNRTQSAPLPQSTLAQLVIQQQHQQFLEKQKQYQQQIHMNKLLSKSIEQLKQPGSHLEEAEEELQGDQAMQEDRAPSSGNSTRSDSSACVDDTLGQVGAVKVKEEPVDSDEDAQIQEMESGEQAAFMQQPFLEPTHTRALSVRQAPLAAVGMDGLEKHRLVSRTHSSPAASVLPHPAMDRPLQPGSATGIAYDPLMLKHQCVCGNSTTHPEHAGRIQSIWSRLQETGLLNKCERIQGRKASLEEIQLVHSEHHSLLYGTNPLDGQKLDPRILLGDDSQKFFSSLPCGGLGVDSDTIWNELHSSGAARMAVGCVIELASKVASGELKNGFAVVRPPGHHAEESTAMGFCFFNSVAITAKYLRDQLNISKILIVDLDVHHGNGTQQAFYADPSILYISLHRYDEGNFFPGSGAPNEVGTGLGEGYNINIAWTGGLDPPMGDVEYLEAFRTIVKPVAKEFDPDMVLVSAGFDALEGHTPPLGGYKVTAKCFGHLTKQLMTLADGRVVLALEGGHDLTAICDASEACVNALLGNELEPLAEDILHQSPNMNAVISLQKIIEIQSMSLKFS
Histone deacetylase 1, sequence (Q13547 whole entry): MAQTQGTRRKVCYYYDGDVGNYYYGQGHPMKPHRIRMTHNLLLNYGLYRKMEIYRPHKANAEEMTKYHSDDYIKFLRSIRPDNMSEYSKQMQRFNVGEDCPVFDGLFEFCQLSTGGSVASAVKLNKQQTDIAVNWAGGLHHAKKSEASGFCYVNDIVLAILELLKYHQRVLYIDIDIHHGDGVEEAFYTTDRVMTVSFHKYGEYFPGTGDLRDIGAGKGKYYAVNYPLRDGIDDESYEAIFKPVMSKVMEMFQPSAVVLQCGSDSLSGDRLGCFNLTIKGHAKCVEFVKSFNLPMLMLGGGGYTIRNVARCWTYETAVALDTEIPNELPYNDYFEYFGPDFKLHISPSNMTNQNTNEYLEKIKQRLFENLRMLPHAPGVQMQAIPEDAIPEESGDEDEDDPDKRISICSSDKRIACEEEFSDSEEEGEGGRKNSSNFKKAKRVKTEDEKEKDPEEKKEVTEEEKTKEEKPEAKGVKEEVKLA
Histone deacetylase 4, sequence (P56524 whole entry): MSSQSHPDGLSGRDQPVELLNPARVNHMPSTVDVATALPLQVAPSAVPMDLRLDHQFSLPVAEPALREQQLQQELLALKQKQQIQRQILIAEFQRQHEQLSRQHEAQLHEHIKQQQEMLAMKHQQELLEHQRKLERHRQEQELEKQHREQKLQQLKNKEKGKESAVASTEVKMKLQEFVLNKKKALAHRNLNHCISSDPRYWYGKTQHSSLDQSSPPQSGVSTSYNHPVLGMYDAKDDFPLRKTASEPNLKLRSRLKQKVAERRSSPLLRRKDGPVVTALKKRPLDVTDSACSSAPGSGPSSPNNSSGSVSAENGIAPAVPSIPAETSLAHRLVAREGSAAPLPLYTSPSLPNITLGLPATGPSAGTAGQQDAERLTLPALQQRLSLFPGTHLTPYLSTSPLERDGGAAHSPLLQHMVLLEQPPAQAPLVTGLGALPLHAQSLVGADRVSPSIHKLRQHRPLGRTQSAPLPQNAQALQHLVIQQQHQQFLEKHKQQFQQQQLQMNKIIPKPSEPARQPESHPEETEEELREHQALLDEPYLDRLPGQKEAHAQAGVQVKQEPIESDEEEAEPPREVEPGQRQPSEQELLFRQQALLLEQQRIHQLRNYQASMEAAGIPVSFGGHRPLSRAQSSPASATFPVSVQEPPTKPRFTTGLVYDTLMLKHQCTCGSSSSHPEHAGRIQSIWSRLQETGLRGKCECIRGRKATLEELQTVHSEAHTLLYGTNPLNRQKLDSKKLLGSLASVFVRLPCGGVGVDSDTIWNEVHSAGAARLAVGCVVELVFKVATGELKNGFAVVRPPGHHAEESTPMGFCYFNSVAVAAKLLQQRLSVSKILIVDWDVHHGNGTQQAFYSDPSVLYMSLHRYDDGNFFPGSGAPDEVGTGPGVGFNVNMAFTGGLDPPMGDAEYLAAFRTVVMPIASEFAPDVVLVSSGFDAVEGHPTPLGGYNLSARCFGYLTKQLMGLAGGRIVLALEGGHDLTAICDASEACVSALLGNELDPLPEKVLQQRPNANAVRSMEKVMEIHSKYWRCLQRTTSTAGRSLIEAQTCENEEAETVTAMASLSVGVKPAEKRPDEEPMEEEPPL

One may read the IC50 as the point on the concentration scale where inhibition reaches its midpoint. Turning to `O=C(/C=C/c1ccc(NC(=O)Cc2cccc3ccccc23)cn1)NO`, the IC50 against Histone deacetylase 8 [1] stood at 47 nM; on Histone deacetylase 1, 98 nM; at Histone deacetylase 2, 156 nM; in the experiment with HCT-116, 70 nM; in the experiment on A549, 320 nM; in the experiment on U-937 [4], 258 nM. Besides, the IC50 in the experiment with K562 [5] came out at 50 nM; in experiment [6], 71 nM; with MV4-11, 59 nM; on Histone deacetylase 5 (read-out: IC50), 1350 nM; at Histone deacetylase 11 [7], 3.98 µM; in the experiment with OCI-AML2, 379 nM. For the same compound, the IC50 against Histone deacetylase 3 turned out to be 39 nM; in the experiment with HL-60 it was 276 nM; in the experiment with OCI-AML-3, 529 nM; in the experiment on KARPAS-299 it was 0.4 µM; against Histone deacetylase 9 [9], 2790 nM; against Histone deacetylase 7 [11], 2060 nM. Moreover, the IC50 with NB-4 turned out to be 84 nM; in the experiment on Kasumi 1 it was 66 nM; in experiment [12], 198 nM. Moreover, the Activity with U-937 [2] came out at 40%; with U-937 [3], 70%; in the experiment with U-937 [10] it was 10%. In addition, the “Ratio IC50” value with K562 [8] is given as 10.

Take `Nc1ccccc1NC(=O)c1ccc(NC(=O)C(Cc2ccccc2)c2ccccc2)cn1` (stereo not given): the IC50 against Histone deacetylase 1 was 353 nM; against Histone deacetylase 2 it was 431 nM; in the experiment on HCT-116, 320 nM; in the experiment on A549, 1510 nM; at Histone deacetylase 9 [13] it was “Not Active”; in the experiment on K562 [5], 320 nM. The IC50 in experiment [6] is 320 nM; on Histone deacetylase 5, “Not Active”; against Histone deacetylase 11 [7], 85.4 µM; on Histone deacetylase 4, “Not Active”; against Histone deacetylase 3, 515 nM; on Histone deacetylase 8 [14], “Not Active”. Besides, the IC50 result at Histone deacetylase 7 [15] is listed as “Not Active”. Moreover, the Activity in the experiment on U-937 [3] is 70%; with U-937 [10], 10%.

Consider `Nc1ccccc1NC(=O)c1ccc(NC(=O)Cc2ccc3ccccc3c2)cn1`, for which the IC50 result at Histone deacetylase 11 [16] was “Not Active”; on Histone deacetylase 1, 189 nM; at Histone deacetylase 2, 227 nM; in the experiment on HCT-116, 430 nM; with A549, 1280 nM; against Histone deacetylase 9 [13], “Not Active”. Besides, the IC50 in the experiment on U-937 [4] was 822 nM; in the experiment with K562 [5], 370 nM; in experiment [6], 446 nM; in the experiment with MV4-11 it was 170 nM; against Histone deacetylase 5 it was “Not Active”; in the experiment on OCI-AML2, 1500 nM. Further, the IC50 entry at Histone deacetylase 4 was “Not Active”; on Histone deacetylase 3, 440 nM; in the experiment on HL-60, 218 nM; on Histone deacetylase 8 [14], “Not Active”; in the experiment with OCI-AML-3 it was 4140 nM; in the experiment with KARPAS-299, 9.27 µM. The IC50 with NB-4 was 210 nM; against Histone deacetylase 7 [15] it was “Not Active”; in the experiment on Kasumi 1 it was 257 nM; in [12], 155 nM. Moreover, the Activity in the experiment on U-937 [3] was 70%; with U-937 [17] it was 100%; in the experiment with U-937 [10], 10%; with U-937 [18], 50% and 30%.

Consider `Nc1ccccc1NC(=O)c1ccc(CNc2nccc(-c3cccnc3)n2)cc1` [MOCETINOSTAT], for which the IC50 with U-937 [4] worked out at 1370 nM; with MV4-11 it was 190 nM; in the experiment with OCI-AML2, 1560 nM; with HL-60, 418 nM; in the experiment on OCI-AML-3, 1790 nM; in the experiment on KARPAS-299, 4.15 µM. Also, the 50% inhibitory concentration (IC50) stood at 406 nM with NB-4, 151 nM in the experiment on Kasumi 1 and 657 nM in experiment [12].
